Source: paper PMC11643450, “Pimozide and Adipic Acid: A New Multicomponent Crystalline Entity for Improved Pharmaceutical Behavior” (Molecules, 2024)
≈ marks a conversion by molar mass, not a printed value.

Experiments:
[1] = Contact angle (wettability) of powder samples with drops of the different fluids; format: physicochemical
Experimental: In total, 120 mg of each sample was placed in a cylindrical ring, and the surface was smoothed with a scraper. The Contact Angle Meter DMe-211Plus (NTG Nuova Tecnogalenica, Cernusco, Italy) was used to record the images of a drop (9 μL) of the different fluids once placed in contact with the surface of the samples at progressive times. The contact angles were measured using the software supplied with the apparatus (three replicates).

[2] = parameters: method as in doi:10.1016/j.molliq.2015.12.054; conditions: cited from earlier work
[3] = Solubility at equilibrium, shake flask method with spectrophotometric determination; format: physicochemical; conditions: thermodynamic from solid, 21 °C
Experimental: The samples were sieved through a 230-mesh grid, 63 μm (Endecotts, London, UK).
An excess sample is placed in the flasks containing the three different fluids and left under stirring. At time intervals, a portion of the solution was taken and filtered on a 0.22 μm filter (Millipore Merck, Darmstadt, Germany). The drug concentration was determined using UV detection (Lambda 25, Perkin-Elmer, Monza, Italy). The test was repeated until equilibrium was reached.

[4] = In vitro dissolution test, USP apparatus 2 (paddle); format: physicochemical
Experimental: For the dissolution tests, the USP apparatus 2, paddle (Erweka DT-D6, Erweka GmbH, Dusseldorf, Germany) was used at 37.0 ± 0.5 °C and 50 rpm (three replicates). In 900 mL of 0.01 N hydrochloric acid pH = 2, which is the medium requested by the USP monograph (Pimozide Tablets, Official Monograph. In The United States Pharmacopeia (USP43-NF38); United States Pharmacopeia Convention, Inc.: Rockville, MD, USA, 2023; p. 3548), it can simulate a fasted stomach environment and, in other two fluids, simulates the following: pH 4.5 phosphate buffer (a condition that simulates the gastric environment in fed conditions) and deionized water (neutral conditions). The dissolution media were prepared according to the reagent and buffer solutions section of the USP [33]. […] The drug concentration was determined using UV detection (Lambda 25, Perkin-Elmer, Monza, Italy), and the data were analyzed using the software provided (Winlab V6 software, Perkin-Elmer, Monza, Italy).

| Contact angle ([1]; deionized water) | Contact angle ([1]; pH 4.5) | Wettability ([1]; pH 2) | solubility ([3]; aqueous buffer, pH 4.5 (phosphate buffer)) [µg/mL] | solubility ([3]; simulated gastric fluid, pH 2.0 (0.01N hydrochloric acid)) [µg/mL] | solubility ([3]; H2O (deionized water)) [µg/mL] | Contact angle ([1]; pH 2, after about 3 min) | Contact angle ([1]; pH 2, initial) | Passage into solution ([4]; deionized water (neutral conditions), compared with pH 4.5, 4 mg PMZ) | Fraction of the dose passed into solution in the first hour ([4]; pH 4.5 phosphate buffer (fed stomach), 4 mg PMZ) | Compound | BCS class [2] |
| --- | --- | --- | --- | --- | --- | --- | --- | --- | --- | --- | --- |
| less than 100 θ | less than 90 θ | – | – | – | – | – | – | – | – | [PMZH]2[adipate] [PMZ:AAD 0.66:0.33ev] | – |
| – | – | poorly wettable | – | – | – | – | – | – | – | O=C(O)CCCCC(=O)O [AAD, adipic acid] | – |
| ~120 θ | about 130 θ | – | 6.4 ± 0.2 (≈ 13.9 µM) | 175 ± 1.8 (≈ 380 µM) | 1.4 ± 0.3 (≈ 3.03 µM) | 4 θ | 120 θ | further depressed | just a very tiny fraction of the dose | O=c1[nH]c2ccccc2n1C1CCN(CCCC(c2ccc(F)cc2)c2ccc(F)cc2)CC1 [PMZ, 1-(1-(4,4-bis(p-fluorophenyl)butyl)-4-piperidyl)-2-benzimidazoline] | class II |
